Consider 5 compounds from US7008949B2, “Heterocyclic compounds which inhibit leukocyte adhesion mediated by α4 integrins” (Elan Pharmaceuticals, Inc., priority 2003, dated 2006).

pIC50: −log10 of the molar value.

The target of one data set is T1, α4β1 Integrin (Homo sapiens, UniProt P05556+P13612).
T1 construct: endogenous in cells; host or cells: Jurkat cells
Briefly: α4β1 Integrin Adhesion Assay: Jurkat cell adhesion to human plasma fibronectin. The data set is classed as cell-based. The conditions noted are these: Jurkat cells. As to the method: 96 well plates (Costar 3590 EIA plates) were coated with human fibronectin (Gibco/BRL, cat #33016-023) at a concentration of 10 μg/mL overnight at 4° C. The plates were then blocked with a solution of bovine serum albumin (BSA; 0.3%) in saline. Jurkat™ cells (maintained in log phase growth) were labeled with Calcein AM according to the manufacturer's instructions, and suspended at a concentration of 2×10^6 cells/mL in Hepes/Saline/BSA. The cells were then exposed to test and control compounds for 30 minutes at room temperature before transfer to individual wells of the fibronectin coated plate. Adhesion was allowed to occur for 35 minutes at 37° C. The wells were then washed by gentle aspiration and pipetting with fresh saline. Fluorescence associated with the remaining adherent cells was quantified using a fluorescence plate reader at EX 485/EM 530.
Cell cultures were prepared by first splitting the stationary phase Jurkat™ cells at 1:10 on day one, and 1:2 on day two to perform assay on day 3. The cells split 1:10 on day one were split 1:4 on day 3 for a day 4 assay.
The assay plates were prepared by first making a working solution of Gibco/BRL Human Fibronectin (cat # 33016-023) in PBS++, at 10 μg/mL.
A Costar 3590 EIA plate was then coated with 50 μL/well for 2 hours at room temperature (thought it can also be left overnight at 4° C.). Finally the plate was asperated and blocked with Hepes/Saline Buffer, 100 μL/well, for 1 hour at RT followed by washing three times with 150 μL of PBS++.
Compound dilutions were accomplished by preparing 1:3 serial dilutions of compounds as follows. For each plate (4 compounds/plate) 600 μL were added to 4 Bio-Rad Titertubes in a Titertube rack. Enough compound was added to each appropriate tube to give a 2× concentration using methods well known in the art. Using Falcon Flexiplates, 100 μL of Hepes/Saline buffer or human serum were added to rows B through G. A multi-channel pipetter set to 180 μL was used to with four tips spaced evenly the pipetter. Each set of four tubes was mixed 5 times and 180 μL of 2× compound was transferred to the first column of each compound dilution in Row B, leaving Row A empty. 180 μL were added to the other wells in Row A. Serial dilutions were performed down the plate by transferring 50 μL to the next dilution and mixing 5 times, changing tips each time after mixing. Dilutions were stopped at Row F. Row G had no compound present.
A 20 μg/mL solution in Hepes/Saline buffer or human serum, of 21/6 antibody was the positive control and was set aside in a reagent trough to add to cell suspension plate.
The cell staining was accomplished by first harvesting the log-phase Jurkat™ cells by centrifugation in 50 mL tubes (1100 rpm for 5 minutes). The cells were resuspended in 50 mL PBS++, spun, and resuspend in 20 mL PBS++. The cells were stained by adding 20 μL of Calcein AM for 30 minutes R.T. The volume was brought to 50 mL with Hepes/Saline buffer and the cells were counted, spun, and resuspend to 2×10^6 cells/mL in Hepes/Saline buffer or human serum.
The compounds were incubated using the following procedure. In a new flexiplate, 65 μL of stained cells were added to Rows B through H. Then 65 μL of 2× compounds were added to the appropriate rows following the plate setup and mixed 3×. 65 μL of 2×-21/6 antibody were added to Row H and mixed 3×. Finally the plate was incubated at room temperature for 30 minutes.
Fibronectin adhesion was measured using a fluorescent plate reader at EX 485/EM 530 after the following work up procedure. After incubation, the cells were mixed 3× and 100 μL were transferred to the Fibronectin coated plates and incubated at 37° C. for about 35 minutes. Each plate was washed, row by row, by gently pipetting 100 μL of R.T. PBS++ down the sides of the wells and turning the plate 90 degrees to aspirate. This procedure was repeated for a total of 3 washes. Each well was filled with 100 μL after washing by pipetting down the side of the well. […]

Data set [1] in a line: Cassette dosing and serum analysis for determination of oral bioavailability. The data set is classed as in vivo, rat. The note with it: male SD rats, oral cassette of 6 compounds, total dose 10 mg/kg, plasma at 4, 8, 12 h. As to the method:
The oral bioavailability was screened by dosing rats with a cassette, i.e. mixture of 6 compounds per dosing solution. The cassette included 5 test articles and a standard compound, for a total dose of 10 mg/kg. Each compound/test article was converted to the sodium salt with equimolar 1 N NaOH and dissolved in water at 2 mg/mL. The cassette was prepared by mixing equal volumes of each of the six solutions. The cassette dosing solution was mixed well and then the pH was adjusted to 7.5–9. The dosing solution was prepared the day before the study and stirred overnight at room temperature.
Male Sprague Dawley (SD) rats from Charles River Laboratories, 6–8 weeks old were used in this screen. Rats were quarantined for at least one day and had continuous access to food and water. On the night before the administration of the cassette, the rats were fasted for approximately 16 h.
Four SD rats were assigned in each cassette. A single dose of the dosing solution was administered orally to each rat. The dosing volume (5 mL/kg) and time were recorded and rats were fed 2 h after dosing.
Blood samples were collected via cardiac puncture at the following time points: 4 h, 8 h and 12 h. Immediately prior to blood collection, rats were anesthetized with CO2 gas within 10–20 seconds. After the 12-hour samples were collected, the rats were euthanized via CO2 asphyxiation followed by cervical dislocation.
Blood samples were kept in heparinized microtainer tubes under sub-ambient temperature (4° C.) before they were processed. Blood samples were centrifuged (10000 rpm for 5 minutes) and plasma samples were removed and stored in a −20° C. freezer until analyzed for drug levels. Drug levels in the plasma were analyzed using the following protocol for direct plasma precipitation.
The in vivo plasma samples were prepared in a 1.5 mL 96-well plate, by adding, in order, 100 μL of the test plasma, 150 μL of methanol, followed by vortexing for 10–20 seconds. 150 μL of 0.05 ng/μL of an Internal Standard in acetonitrile were added and vortexed for 30 seconds.
The standard curve samples were prepared in a 1.5 mL 96-well plate, by adding, in order, 100 μL of control mouse plasma, followed by 150 μL of methanol and vortexing for 10–20 seconds. 150 μL of 0.05 ng/μL of an Internal Standard in acetonitrile were added and vortexed for 30 seconds. The samples were spiked with 0–200 ng (10 concentrations) of the compound of interest in 50% methanol to obtain a standard curve range of 0.5 ng/mL–2,000 ng/mL. Again, the sample was vortexed for 30 seconds.
The samples were then spun for 20–30 minutes at 3000 rpm in an Eppendorf microfuge before 80–90% of supernatant was transferred into a clean 96-well plate. The organic solvent was then evaporated until the samples were dry (under N2 at 40° C./30–60 min (ZymarkTurbovap)).
The residue was then dissolved in […] mobile phase (50% CH3OH/0.1% TFA). LC/MS/MS was then run using a PE-Sciex API-3000 triple quadurpole mass spectrometer (SN0749707), Perkin-Elmer, Series200auto-sampler, and shimadzu 10A pump. Acquisition was done with PE-Sciex Analyst (v1.1) and data analysis and quantification were accomplished using PE-Sciex Analyst (v1.1). A 5–50 μL sample volume was injected onto a reverse phase ThermoHypersil DASH-18 column (Keystone 2.0×20 mm, 5 μm, PN: 8823025-701) using a mobile phase of 25% CH3OH, 0.1% TFA-100% CH3OH, 0.1% TFA. The run time was about 8 minutes at a flow rate of about 300 μL/minutes.
The Area Under the Curve (AUC) was calculated using the linear trapezoidal rule from t=0 to the last sampling time tx (see Handbook of Basic Pharmacokinetics, Wolfgang A. Ritschel and Gregory L. Kearns, 5th ed, 1999). AUC^0→tx═S((Cn+Cn+1)/2))·(tn+1−tn)[(μg/mL)h]
In the case of the cassette dosing paradigm, samples at 4, 8 and 12 h post extravascular dosing, the AUC was calculated from t=0 to t=12 h.

[2] abbreviates: IC50, Cell Adhesion to Human Plasma Fibronectin (With Human Serum), with human serum.
[3] abbreviates: IC50, Cell Adhesion to Human Plasma Fibronectin (Without the Human Serum), without human serum.

T1 sequence (P13612 34-1032): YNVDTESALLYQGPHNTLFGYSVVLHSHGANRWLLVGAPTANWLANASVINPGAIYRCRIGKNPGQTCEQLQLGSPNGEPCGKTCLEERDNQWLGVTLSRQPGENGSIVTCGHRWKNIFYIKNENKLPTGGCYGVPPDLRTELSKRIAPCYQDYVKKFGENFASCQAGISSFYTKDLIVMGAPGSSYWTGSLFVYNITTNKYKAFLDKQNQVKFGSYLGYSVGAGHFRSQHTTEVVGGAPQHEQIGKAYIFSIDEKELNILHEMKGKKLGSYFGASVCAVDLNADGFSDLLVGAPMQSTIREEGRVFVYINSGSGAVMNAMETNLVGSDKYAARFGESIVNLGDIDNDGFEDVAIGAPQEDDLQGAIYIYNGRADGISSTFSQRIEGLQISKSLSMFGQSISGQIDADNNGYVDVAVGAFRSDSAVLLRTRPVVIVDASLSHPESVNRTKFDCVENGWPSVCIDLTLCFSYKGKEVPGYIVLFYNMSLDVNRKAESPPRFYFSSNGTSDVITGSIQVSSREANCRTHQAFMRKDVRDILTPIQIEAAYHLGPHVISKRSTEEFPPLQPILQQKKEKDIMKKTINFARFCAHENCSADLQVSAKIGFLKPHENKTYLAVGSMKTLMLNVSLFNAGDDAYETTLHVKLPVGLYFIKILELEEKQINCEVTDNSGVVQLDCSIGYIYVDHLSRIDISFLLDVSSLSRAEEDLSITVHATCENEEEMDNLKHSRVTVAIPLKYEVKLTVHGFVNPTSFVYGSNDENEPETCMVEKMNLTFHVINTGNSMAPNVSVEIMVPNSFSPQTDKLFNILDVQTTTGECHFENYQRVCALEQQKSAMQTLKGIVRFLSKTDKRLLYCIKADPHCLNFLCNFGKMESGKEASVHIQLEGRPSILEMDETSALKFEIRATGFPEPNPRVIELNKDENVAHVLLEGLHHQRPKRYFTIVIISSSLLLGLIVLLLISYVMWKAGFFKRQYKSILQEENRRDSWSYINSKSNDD
T1 sequence (P05556 21-798): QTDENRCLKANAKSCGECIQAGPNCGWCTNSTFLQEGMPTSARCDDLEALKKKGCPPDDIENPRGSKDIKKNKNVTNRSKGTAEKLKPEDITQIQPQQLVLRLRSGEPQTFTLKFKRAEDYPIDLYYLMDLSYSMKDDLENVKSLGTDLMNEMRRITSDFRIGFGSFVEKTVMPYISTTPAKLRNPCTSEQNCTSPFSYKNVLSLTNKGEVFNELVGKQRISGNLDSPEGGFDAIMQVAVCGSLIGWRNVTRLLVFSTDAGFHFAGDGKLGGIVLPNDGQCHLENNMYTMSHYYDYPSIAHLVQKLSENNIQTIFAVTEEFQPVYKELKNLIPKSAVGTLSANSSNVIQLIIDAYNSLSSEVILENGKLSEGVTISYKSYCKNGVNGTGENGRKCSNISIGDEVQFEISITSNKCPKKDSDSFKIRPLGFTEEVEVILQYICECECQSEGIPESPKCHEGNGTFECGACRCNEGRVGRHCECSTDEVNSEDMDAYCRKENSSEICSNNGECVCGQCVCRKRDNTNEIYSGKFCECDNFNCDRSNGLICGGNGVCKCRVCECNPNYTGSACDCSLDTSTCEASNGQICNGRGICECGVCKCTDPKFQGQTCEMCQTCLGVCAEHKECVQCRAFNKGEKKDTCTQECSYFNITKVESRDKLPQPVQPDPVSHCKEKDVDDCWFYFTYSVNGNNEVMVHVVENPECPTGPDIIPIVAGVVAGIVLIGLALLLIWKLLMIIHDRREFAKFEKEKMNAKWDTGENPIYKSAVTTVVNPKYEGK

`CCN(CC)c1ncc(N(CC)S(=O)(=O)c2cc(Cl)cc(Cl)c2)c(N[C@@H](Cc2ccc(OC(=O)N(C)C)cc2)C(=O)O)n1` [Example 20]: the pIC50 was 6.93 against α4β1 Integrin (setting [2]) and 8.11 at α4β1 Integrin (setting [3]). In addition, the “AUC (average AUC 0→12 h)” value in data set [1] was 0.0536 (μg/mL)h.

“2-{2-diethylamino-5-[(4-chlorobenzenesulfonyl)ethylamino] pyrimidin-4-ylamino}-3-(4-dimethylcarbamoyloxyphenyl)propionic acid [Example 13]”: the “IC50, Cell Adhesion to Human Plasma Fibronectin (With Human Serum)” value against α4β1 Integrin (with human serum) stood at 0.075 µg/mL. In addition, the “IC50, Cell Adhesion to Human Plasma Fibronectin (Without the Human Serum)” value at α4β1 Integrin (without human serum) came to 4 ng/mL. In addition, the “AUC (average AUC 0→12 h)” value in data set [1] is 1.5806 (μg/mL)h.

“2-{2-diethylamino-5-[(3,4-difluorobenzenesulfonyl) ethylamino]pyrimidin-4-ylamino}-3-(4-dimethylcarbamoyloxyphenyl) propionic acid [Example 12]”: the “IC50, Cell Adhesion to Human Plasma Fibronectin (With Human Serum)” value against α4β1 Integrin (with human serum) came to 0.06 µg/mL. The “IC50, Cell Adhesion to Human Plasma Fibronectin (Without the Human Serum)” value against α4β1 Integrin (without human serum) is 3 ng/mL. Moreover, the “AUC (average AUC 0→12 h)” value in data set [1] is listed as 0.8447 (μg/mL)h.

As to `CCN(CC)c1ncc(N(C)S(=O)(=O)c2cc(F)cc(F)c2)c(N[C@@H](Cc2ccc(OC(=O)N(C)C)cc2)C(=O)O)n1` [Example 15, 2-{2-diethylamino-5-[(3.5-difluorobenzenesulfonyl)methylamino]pyrimidin-4-ylamino}-3-(4-dimethylcarbamoyloxypheyl) propionic acid], the results for the pIC50 on α4β1 Integrin (setting [2]) and against α4β1 Integrin (setting [3]) were 6.69 and 8.82, respectively. Besides, the “AUC (average AUC 0→12 h)” value in data set [1] is 0.2098 (μg/mL)h.

In the case of `CCCCN(c1cnc(N(CC)CC)nc1NC(Cc1ccc(OC(=O)N(C)C)cc1)C(=O)O)S(=O)(=O)c1ccc(F)cc1` (stereo not drawn) [Example 24, 2-{2-diethylamino-5-[(4-fluorobenzenesulfonyl)-n-butylamino]pyrimidin-4-ylamino}-3-(4-dimethylcarbamoyloxyphenyl)propionic acid], the pIC50 on α4β1 Integrin (setting [2]) is 7.37; against α4β1 Integrin (setting [3]), 8.32. Also, the “AUC (average AUC 0→12 h)” value in data set [1] is listed as 0.4983 (μg/mL)h.

Broadly, the pIC50 is the negative decadic logarithm of the IC50, by convention in mol/L. Read a low pIC50 as a large IC50.
